From the supplement of paper PMC6045584
± gives the standard deviation of the averaged measurements.

Compound: T1, CC[C@@]1(O)C(=O)OCc2c1cc1n(c2=O)Cc2cc3ccccc3nc2-1 [CAMPTOTHECIN]
Assay: surviving fraction relative to DMSO-only wells; higher = less growth inhibition
Details: 5 nM; exposure time: 5 days
In short: (§1)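 Log-phase tumour cell lines, 250–500 cells per well in 384-well plates, received inhibitors at 0.5, 1, 5, 10, 50, 100, 500 and 1000 nM continuously for five days, starting 24 hours after seeding. Viability was quantified with CellTiter-Glo luminescence and normalised to the median of DMSO-only wells to give surviving fraction. Three screens were run per line, and a line stayed in only with replicate Pearson r >0.7 and median Z' >0.3.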

Going from CME SYNOVIAL to S68 BREAST, the surviving fraction rises from 0.0177 ± 0.00058 to 0.442 ± 0.11.

Work on HS578T BREAST yielded a surviving fraction of 0.729 ± 0.11.

Same assay, conditions: 10 nM; exposure time: 5 days

HCC202 BREAST and SCC47 HEADNECK are within error of each other in surviving fraction: 0.691 ± 0.24 for the first, 0.919 ± 0.016 for the second.

Compared with SG28 HEADNECK, CME SYNOVIAL is lower in surviving fraction: 0.696 ± 0.099 for the first, 0.0897 ± 0.018 for the second.

Going from S68 BREAST to HS578T BREAST, the surviving fraction rises from 0.342 ± 0.041 to 0.648 ± 0.091.

Same assay, conditions: 50 nM; exposure time: 5 days

First: HCC202 BREAST
Second: SCC47 HEADNECK
The surviving fraction of the first is higher: 0.78 ± 0.14 for the first, 0.46 ± 0.012 for the second.

Compared with SG28 HEADNECK, CME SYNOVIAL is lower in surviving fraction: 0.337 ± 0.015 for the first, 0.028 ± 0.0027 for the second.

First: S68 BREAST
Second: HS578T BREAST
The surviving fraction of the first is lower: 0.284 ± 0.045 for the first, 0.464 ± 0.05 for the second.

Same assay, conditions: 100 nM; exposure time: 5 days

First: HCC202 BREAST
Second: SCC47 HEADNECK
The surviving fraction of the first is higher: 0.767 ± 0.1 for the first, 0.375 ± 0.029 for the second.

Compared with SG28 HEADNECK, CME SYNOVIAL is lower in surviving fraction: 0.55 ± 0.044 for the first, 0.152 ± 0.017 for the second.

Going from S68 BREAST to HS578T BREAST, the surviving fraction rises from 0.218 ± 0.021 to 0.457 ± 0.054.

Same assay, conditions: 500 nM; exposure time: 5 days

Going from HCC202 BREAST to SCC47 HEADNECK, the surviving fraction falls from 0.478 ± 0.0071 to 0.204 ± 0.0038.

Compared with SG28 HEADNECK, CME SYNOVIAL is lower in surviving fraction: 0.211 ± 0.04 for the first, 0.1177 ± 0.00058 for the second.

Compared with S68 BREAST, HS578T BREAST is higher in surviving fraction: 0.0747 ± 0.012 for the first, 0.228 ± 0.0098 for the second.

Same assay, conditions: 1000 nM; exposure time: 5 days

Going from HCC202 BREAST to SCC47 HEADNECK, the surviving fraction falls from 0.357 ± 0.0042 to 0.118 ± 0.0095.

First: SG28 HEADNECK
Second: CME SYNOVIAL
The surviving fraction of the first is lower: 0.102 ± 0.0035 for the first, 0.229 ± 0.0051 for the second.

First: S68 BREAST
Second: HS578T BREAST
The surviving fraction of the first is lower: 0.0687 ± 0.0057 for the first, 0.212 ± 0.039 for the second.

Compound: T2, COc1cc2ncnc(Nc3ccc(F)c(Cl)c3)c2cc1OCCCN1CCOCC1 [GEFITINIB]
Assay: as above
Details: 0.5 nM; exposure time: 5 days
In short: as §1

HCC202 BREAST and SCC47 HEADNECK are within error of each other in surviving fraction: 1.4 ± 0.62 for the first, 1.1 ± 0.034 for the second.

SG28 HEADNECK and CME SYNOVIAL are within error of each other in surviving fraction: 1.14 ± 0.071 for the first, 1.32 ± 0.14 for the second.

S68 BREAST and HS578T BREAST are within error of each other in surviving fraction: 0.936 ± 0.095 for the first, 0.972 ± 0.039 for the second.

Same assay, conditions: 1 nM; exposure time: 5 days

HCC202 BREAST and SCC47 HEADNECK are within error of each other in surviving fraction: 1.2 ± 0.23 for the first, 1.1 ± 0.058 for the second.

Going from SG28 HEADNECK to CME SYNOVIAL, the surviving fraction rises from 1.2 ± 0.037 to 1.3 ± 0.036.

S68 BREAST and HS578T BREAST are within error of each other in surviving fraction: 0.744 ± 0.17 for the first, 0.906 ± 0.078 for the second.

Same assay, conditions: 5 nM; exposure time: 5 days

HCC202 BREAST and SCC47 HEADNECK are within error of each other in surviving fraction: 1.35 ± 0.21 for the first, 1.12 ± 0.043 for the second.

Going from SG28 HEADNECK to CME SYNOVIAL, the surviving fraction rises from 1.06 ± 0.075 to 1.4 ± 0.12.

S68 BREAST and HS578T BREAST are within error of each other in surviving fraction: 1.11 ± 0.34 for the first, 0.965 ± 0.095 for the second.

Same assay, conditions: 10 nM; exposure time: 5 days

HCC202 BREAST and SCC47 HEADNECK are the same in surviving fraction: 1.06 ± 0.14 for the first, 1.06 ± 0.053 for the second.

First: SG28 HEADNECK
Second: CME SYNOVIAL
The surviving fraction of the first is lower: 1.03 ± 0.035 for the first, 1.44 ± 0.17 for the second.

Compared with S68 BREAST, HS578T BREAST is lower in surviving fraction: 1.09 ± 0.069 for the first, 0.878 ± 0.12 for the second.

Same assay, conditions: 50 nM; exposure time: 5 days

Going from HCC202 BREAST to SCC47 HEADNECK, the surviving fraction falls from 1.32 ± 0.14 to 0.993 ± 0.017.

Going from SG28 HEADNECK to CME SYNOVIAL, the surviving fraction rises from 0.758 ± 0.069 to 1.39 ± 0.12.

S68 BREAST and HS578T BREAST are within error of each other in surviving fraction: 1.11 ± 0.23 for the first, 0.996 ± 0.13 for the second.

Same assay, conditions: 100 nM; exposure time: 5 days

HCC202 BREAST and SCC47 HEADNECK are within error of each other in surviving fraction: 1.11 ± 0.37 for the first, 0.899 ± 0.028 for the second.

First: SG28 HEADNECK
Second: CME SYNOVIAL
The surviving fraction of the first is lower: 0.679 ± 0.033 for the first, 1.41 ± 0.17 for the second.

S68 BREAST and HS578T BREAST are within error of each other in surviving fraction: 0.762 ± 0.093 for the first, 0.819 ± 0.075 for the second.

Same assay, conditions: 500 nM; exposure time: 5 days

HCC202 BREAST and SCC47 HEADNECK are within error of each other in surviving fraction: 0.542 ± 0.13 for the first, 0.649 ± 0.018 for the second.

Compared with SG28 HEADNECK, CME SYNOVIAL is higher in surviving fraction: 0.501 ± 0.059 for the first, 1.28 ± 0.096 for the second.

Compared with S68 BREAST, HS578T BREAST is higher in surviving fraction: 0.728 ± 0.1 for the first, 1.07 ± 0.1 for the second.

Same assay, conditions: 1000 nM; exposure time: 5 days

Going from HCC202 BREAST to SCC47 HEADNECK, the surviving fraction rises from 0.345 ± 0.013 to 0.602 ± 0.039.

Compared with SG28 HEADNECK, CME SYNOVIAL is higher in surviving fraction: 0.504 ± 0.016 for the first, 1.18 ± 0.047 for the second.

S68 BREAST and HS578T BREAST are within error of each other in surviving fraction: 0.687 ± 0.22 for the first, 0.899 ± 0.23 for the second.

Compound: O=C(O)C1(C(=O)O)CCC1.[NH2-].[NH2-].[Pt+2] [CARBOPLATIN]
Assay: area under dose-response curve of surviving fraction (unscaled, Aref=0) (surviving fraction x log10(nM)); higher = more resistant
Details: exposure time: 5 days; dose range 0.5-1000 nM
In short: (§2)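 Inhibitor was applied to tumour cell lines at eight concentrations (0.5 to 1000 nM) for five days in 384-well plates. Luminescence from CellTiter-Glo, scaled to DMSO-only wells, gave surviving fractions in three screens per line, and these were fitted by 3-parameter logistic regression with the drc R package. The area under the curve is an unscaled activity area. Aref was 0, and dose was on a log10 scale.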

Going from CME SYNOVIAL to S68 BREAST, the “area under dose-response curve” value falls from 4.52 to 3.8.

Compound: C[C@]1(O)C[C@@H](c2nc(-c3ccc4ccc(-c5ccccc5)nc4c3)c3c(N)nccn32)C1 [OSI-906]
Assay: as above
Details: exposure time: 5 days; dose range 0.5-1000 nM
In short: as §2

First: SCC47 HEADNECK
Second: S68 BREAST
The “area under dose-response curve” value of the first is higher: 3.41 for the first, 2.83 for the second.

With HS578T BREAST the “area under dose-response curve” value was 3.11.

Compound: COCC[n+]1c2c(n(Cc3cnccn3)c1C)C(=O)c1ccccc1C2=O [YM155]
Assay: as above
Details: exposure time: 5 days; dose range 0.5-1000 nM
In short: as §2

Compared with SCC47 HEADNECK, CME SYNOVIAL is lower in “area under dose-response curve” value: 1.31 for the first, 1.3 for the second.

Going from S68 BREAST to HS578T BREAST, the “area under dose-response curve” value rises from 1.4 to 2.61.

Compound: Cc1ccc(-c2cc(C(F)(F)F)nn2-c2ccc(S(N)(=O)=O)cc2)cc1 [CELECOXIB]
Assay: as above
Details: exposure time: 5 days; dose range 0.5-1000 nM
In short: as §2

Compared with SCC47 HEADNECK, CME SYNOVIAL is higher in “area under dose-response curve” value: 3.63 for the first, 4.61 for the second.

Going from S68 BREAST to HS578T BREAST, the “area under dose-response curve” value falls from 3.75 to 3.16.

Compound: CC(=O)O[C@H]1C(=O)[C@@]2(C)[C@H]([C@H](OC(=O)c3ccccc3)[C@]3(O)C[C@H](OC(=O)[C@H](O)[C@@H](NC(=O)c4ccccc4)c4ccccc4)C(C)=C1C3(C)C)[C@]1(OC(C)=O)CO[C@@H]1C[C@@H]2O [PACLITAXEL]
Assay: as above
Details: exposure time: 5 days; dose range 0.5-1000 nM
In short: as §2

Going from HCC202 BREAST to SCC47 HEADNECK, the “area under dose-response curve” value falls from 1.37 to 1.02.

First: SG28 HEADNECK
Second: CME SYNOVIAL
The “area under dose-response curve” value of the first is higher: 2.04 for the first, 1.47 for the second.

First: S68 BREAST
Second: HS578T BREAST
The “area under dose-response curve” value of the first is higher: 0.758 for the first, 0.471 for the second.

Compound: CC(=O)NCC(=O)N1[C@@H]2CC[C@H]1c1ccc(Nc3ncc(C(F)(F)F)c(NC4CCC4)n3)cc12
Assay: as above
Details: exposure time: 5 days; dose range 0.5-1000 nM
In short: as §2

First: HCC202 BREAST
Second: SCC47 HEADNECK
The “area under dose-response curve” value of the first is higher: 4.5 for the first, 2.87 for the second.

First: SG28 HEADNECK
Second: CME SYNOVIAL
The “area under dose-response curve” value of the first is higher: 2.96 for the first, 2.49 for the second.

Compared with S68 BREAST, HS578T BREAST is higher in “area under dose-response curve” value: 2.38 for the first, 2.72 for the second.

Compound: CC(=O)c1c(C)c2cnc(Nc3ccc(N4CCNCC4)cn3)nc2n(C2CCCC2)c1=O
Assay: as above
Details: exposure time: 5 days; dose range 0.5-1000 nM
In short: as §2

Going from HCC202 BREAST to SG28 HEADNECK, the “area under dose-response curve” value rises from 3.11 to 3.43.

Compared with CME SYNOVIAL, HS578T BREAST is lower in “area under dose-response curve” value: 4.13 for the first, 3.49 for the second.

Compound: T1, CAMPTOTHECIN
Assay: as above
Details: exposure time: 5 days; dose range 0.5-1000 nM
In short: as §2

First: SCC47 HEADNECK
Second: CME SYNOVIAL
The “area under dose-response curve” value of the first is higher: 2.11 for the first, 0.288 for the second.

Compared with S68 BREAST, HS578T BREAST is higher in “area under dose-response curve” value: 1.05 for the first, 1.81 for the second.

Compound: T2, GEFITINIB
Assay: as above
Details: exposure time: 5 days; dose range 0.5-1000 nM
In short: as §2

Compared with SCC47 HEADNECK, S68 BREAST is lower in “area under dose-response curve” value: 3 for the first, 2.99 for the second.

With HS578T BREAST the “area under dose-response curve” value was 3.1.
